Data on 29 molecules can be found in PubChem BioAssay AID686957 (The Scripps Research Institute Molecular Screening Center, 2013).

Active and inactive are the calls of the source. No rule for the calls is given here.

The assay has as its target T-cell receptor (TCR)-CD3 interaction, human (TCR alpha chain TRAV4). The experiment in a line: potency of TCR-CD3 interaction inhibitors, dose response, biochemical, fluorescence, TAMRA-labeled TCR probe (AID 686957). To be noted: TCR-CD3 binding.

What is called IC50 is the concentration at which inhibition is half-maximal. As to `O=C(N/N=C/c1cc(Br)ccc1O)c1cccc(N2CCCC2=O)c1`, the IC50 is > 94.1 µM (inactive).

Regarding `CCOc1ccc(C(=O)CCC(=O)NNC(=O)c2ccccc2O)cc1`, the IC50 is > 94.1 µM (inactive).

For the molecule `O=C(Cc1ccccc1)NNC(=S)NC(=O)c1cccnc1`, the IC50 was > 94.1 µM (inactive).

As to `CCc1ccc(NC(=O)NNC(=O)c2ccc3ccccc3c2O)cc1`, the IC50 is > 94.1 µM (inactive).

For `Nc1nnc(CC(=O)N/N=C\c2cc([N+](=O)[O-])ccc2O)s1`, the IC50 is > 94.1 µM (inactive).

For the molecule `Cc1cc(=O)oc2cc(OCC(=O)N/N=C/c3cc([N+](=O)[O-])ccc3O)ccc12`, the IC50 was > 94.1 µM (inactive).

Turning to `C/C(=N/NC(=O)c1cc(O)c(O)c(O)c1)c1ccc([N+](=O)[O-])cc1`, the IC50 is > 94.1 µM (inactive).

On to `COC(=O)C1CCN(C(=O)c2cc(-c3ccco3)nc3ccccc23)CC1`, for which the IC50 is > 94.1 µM (inactive).

For the molecule `COc1cccc(OCC(=O)NNC(=O)c2ccc3ccccc3c2O)c1`, the IC50 is > 94.1 µM (inactive).

Turning to `COc1ccc(NC(=O)NNC(=O)c2ccc3ccccc3c2O)cc1OC`, the IC50 is > 94.1 µM (inactive).

With `O=c1c2ccccc2c(C=Nc2ccccc2O)c(O)n1-c1nccs1`, the IC50 is > 94.1 µM (inactive).

Take `Cc1ccc(-n2c(O)c(/C=N/NC(=O)C3COc4ccccc4O3)c3ccccc3c2=O)cc1` (centres undefined): the IC50 was > 94.1 µM (inactive).

For `O=C(NNC(=O)c1ccc2ccccc2c1O)c1ccccc1Cl`, the IC50 is > 94.1 µM (inactive).

As for `O=C(NNC(=O)c1cc2ccccc2cc1O)Nc1ccc(F)cc1F`, the IC50 was > 94.1 µM (inactive).

`COC(=O)Nc1ccc(S(=O)(=O)NNC(=O)c2c(O)c3ccccc3[nH]c2=O)cc1`: the IC50 was > 94.1 µM (inactive).

As for `Oc1ccc(/C=N/N=C/c2ccc(O)c(O)c2)cc1O`, the IC50 was 2.24 µM.

Take `O=c1oc2ccccc2c2oc3cc(O)c(O)cc3c12`: the IC50 is > 94.2 µM (inactive).

On to `COc1ccc(/C=C2\SC(=O)N(CC(=O)NNC(=O)c3ccccc3O)C2=O)cc1`, for which the IC50 is > 94.1 µM (inactive).

Take `O=Nc1[nH]c(=O)c(/C=C(\O)c2ccccc2)nc1NO`: the IC50 is > 94.2 µM (inactive).

With `O=C(NNC(=S)NC1CCCCC1)c1ccccc1O`, the IC50 was > 94.1 µM (inactive).

Regarding `CCN(CC(=O)Nc1c(F)cccc1F)C(=O)/C=C/c1ccc2ccccc2n1`, the IC50 is > 94.1 µM (inactive).

In the case of `Cc1cc(C(=O)N/N=C/c2cc(Cl)cc([N+](=O)[O-])c2O)c2ccccc2n1`, the IC50 was > 94.1 µM (inactive).

Consider `O=C(Nc1cccc(S(=O)(=O)NC2=NCCC2)c1)c1cc(-c2ccco2)nc2ccccc12`, for which the IC50 was > 94.1 µM (inactive).

With `CC(=O)NNC(=S)NC(=O)c1ccc(C)cc1`, the IC50 is > 94 µM (inactive).

`O=C(NNC(=O)c1c(O)c2ccccc2[nH]c1=O)c1ccccc1`: the IC50 is > 94.1 µM (inactive).

For `O=C1NC(=S)S/C1=C\C=C\c1ccc([N+](=O)[O-])o1`, the IC50 is > 94.1 µM (inactive).

For `O=C(NC(=S)NNC(=O)c1ccccc1O)c1cccnc1`, the IC50 is > 94.1 µM (inactive).

With `Cc1cc([N+](=O)[O-])cc(/C=N/n2c(C)nc3ccccc3c2=O)c1O`, the IC50 was > 94 µM (inactive).

On to `COC(=O)CC1(C(=O)OC)Nc2cc(Cl)c(Cl)cc2S(=O)(=O)N1O` (centres undefined), for which the IC50 was > 94.2 µM (inactive).
